In ChEMBL document CHEMBL1201862, “PubChem BioAssay data set” (2004):
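The compound was tested at five concentrations on cells cultured in 96-well plates, with a 48-hour exposure period. GI50 = concentration required for 50% inhibition of growth.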 Activity calls are given as the source filed them. Cut-off read from the data, not from the text of the source: active = GI50 up to about 1.1 µM and inactive = higher.

Assays:
Test in all cases: NCI tumour cell line growth inhibition, 48 h
A498 = system: A498
A549 = system: A549
ACHN = system: ACHN
HL-60 = system: HL-60
HT-29 = system: HT-29
IGROV-1 = system: IGROV-1
K562 = system: K562
LOX IMVI = system: LOX IMVI
MDA-MB-435 = system: MDA-MB-435
Malme-3M = system: Malme-3M
NCI-H226 = system: NCI-H226
NCI-H522 = system: NCI-H522
PC-3 = system: PC-3
SF-539 = system: SF-539
SK-MEL-28 = system: SK-MEL-28
SK-MEL-2 = system: SK-MEL-2
SN12C = system: SN12C
SW-620 = system: SW-620
TK-10 = system: TK-10
UACC-62 = system: UACC-62

O=C1C(=C(C(F)(F)Cl)C(F)(F)Cl)C2CCC1C2 (stereo not given)
GI50 (A498): > 10 µM (inactive)
GI50 (A549): 2.2 µM (inactive)
GI50 (ACHN): 1.84 µM (inactive)
GI50 (HL-60): 0.238 µM (active)
GI50 (HT-29): 2.19 µM (inactive)
GI50 (IGROV-1): 1.89 µM (inactive)
GI50 (K562): 0.63 µM (active)
GI50 (LOX IMVI): 1.33 µM (inactive)
GI50 (MDA-MB-435): 1.88 µM (inactive)
GI50 (Malme-3M): 1.55 µM (inactive)
GI50 (NCI-H226): > 5.38 µM (inactive)
GI50 (NCI-H522): 0.225 µM (active)
GI50 (PC-3): 2.07 µM (inactive)
GI50 (SF-539): 3.29 µM (inactive)
GI50 (SK-MEL-28): 1.93 µM (inactive)
GI50 (SK-MEL-2): 1.78 µM (inactive)
GI50 (SN12C): 1.97 µM (inactive)
GI50 (SW-620): 1.82 µM (inactive)
GI50 (TK-10): 1.77 µM (inactive)
GI50 (UACC-62): 2.01 µM (inactive)

O=C1CC(c2ccccc2Cl)C2(C(=O)NC(=O)NC2=O)C(c2ccccc2Cl)C1 (stereo not given)
GI50 (A498): > 100 µM (inactive)
GI50 (A549): 85.3 µM (inactive)
GI50 (ACHN): > 100 µM (inactive)
GI50 (HL-60): 80.4 µM (inactive)
GI50 (HT-29): > 100 µM (inactive)
GI50 (IGROV-1): 0.104 µM (active)
GI50 (K562): > 100 µM (inactive)
GI50 (LOX IMVI): 51.8 µM (inactive)
GI50 (MDA-MB-435): 52.6 µM (inactive)
GI50 (Malme-3M): 5.05 µM (inactive)
GI50 (NCI-H226): 65.8 µM (inactive)
GI50 (NCI-H522): > 100 µM (inactive)
GI50 (PC-3): > 100 µM (inactive)
GI50 (SF-539): 76.2 µM (inactive)
GI50 (SK-MEL-28): > 100 µM (inactive)
GI50 (SK-MEL-2): 81.1 µM (inactive)
GI50 (SN12C): > 100 µM (inactive)
GI50 (SW-620): > 100 µM (inactive)
GI50 (TK-10): > 100 µM (inactive)
GI50 (UACC-62): 46.9 µM (inactive)

C=C1C(=O)OC2CC1C(O)C/C(C)=C/CC/C(C)=C/C(O)CC2C (stereo not given)
GI50 (A498): 3.24 µM (inactive)
GI50 (A549): 12.4 µM (inactive)
GI50 (ACHN): 1.65 µM (inactive)
GI50 (HL-60): 0.262 µM (active)
GI50 (HT-29): 1.78 µM (inactive)
GI50 (IGROV-1): 2.75 µM (inactive)
GI50 (K562): 1 µM (active)
GI50 (LOX IMVI): 1.29 µM (inactive)
GI50 (MDA-MB-435): 2.85 µM (inactive)
GI50 (Malme-3M): 2.37 µM (inactive)
GI50 (NCI-H226): 9.33 µM (inactive)
GI50 (NCI-H522): 0.216 µM (active)
GI50 (PC-3): 3.11 µM (inactive)
GI50 (SF-539): 2.35 µM (inactive)
GI50 (SK-MEL-28): 4.9 µM (inactive)
GI50 (SK-MEL-2): 3.4 µM (inactive)
GI50 (SN12C): 1.85 µM (inactive)
GI50 (SW-620): 2 µM (inactive)
GI50 (TK-10): 2.05 µM (inactive)
GI50 (UACC-62): 2.34 µM (inactive)
